In the NIST ThermoML archive (doi:10.1021/acs.jced.7b01030):
Where “and” joins values, the source holds several entries; their conditions need not be identical. Equal values may be shown once. Numbers after ± are expanded uncertainties.

Settings: Liquid; for mass density: Vibrating tube method; for viscosity: Falling or rolling sphere viscometry; for self diffusion coefficient: NMR spin-echo technique

Which results are given for `OCC(F)(F)F` [2,2,2-trifluoroethanol]?
mass density (303.15 K, 100 kPa): 1374.17 ± 0.63 kg/m3; viscosity (308.15 K, 100 kPa): 1.384 ± 0.057 mPa·s; self diffusion coefficient (308.28 K, 100 kPa): 9.35e-10 m2/s; viscosity (313.15 K, 100 kPa): 1.219 ± 0.05 mPa·s and 1.221 ± 0.05 mPa·s; mass density (313.15 K, 100 kPa): 1356.64 ± 0.63 kg/m3; viscosity (318.15 K, 100 kPa): 1.081 ± 0.044 mPa·s and 1.078 ± 0.044 mPa·s; self diffusion coefficient (318.17 K, 100 kPa): 1.24e-09 m2/s and 1.22e-09 m2/s; viscosity (322.14 K, 10500 kPa): 1.125 ± 0.046 mPa·s and 1.128 ± 0.046 mPa·s; viscosity (322.14 K, 25500 kPa): 1.286 ± 0.052 mPa·s; viscosity (322.14 K, 50500 kPa): 1.561 ± 0.064 mPa·s; viscosity (322.14 K, 75000 kPa): 1.827 ± 0.074 mPa·s; viscosity (322.14 K, 75200 kPa): 1.828 ± 0.074 mPa·s; viscosity (322.14 K, 100300 kPa): 2.137 ± 0.087 mPa·s; viscosity (323.15 K, 100 kPa): 0.989 ± 0.04 mPa·s [middle of 9 runs]; mass density (323.15 K, 100 kPa): 1338.58 ± 0.63 kg/m3; viscosity (323.15 K, 10000 kPa): 1.091 ± 0.045 mPa·s; viscosity (323.15 K, 10100 kPa): 1.09 ± 0.045 mPa·s; viscosity (323.15 K, 25300 kPa): 1.246 ± 0.051 mPa·s; viscosity (323.15 K, 25400 kPa): 1.248 ± 0.051 mPa·s; viscosity (323.15 K, 49500 kPa): 1.492 ± 0.061 mPa·s; viscosity (323.15 K, 49700 kPa): 1.493 ± 0.061 mPa·s; viscosity (323.15 K, 74800 kPa): 1.781 ± 0.073 mPa·s; viscosity (323.15 K, 75000 kPa): 1.789 ± 0.073 mPa·s; viscosity (323.15 K, 99900 kPa): 2.075 ± 0.086 mPa·s; viscosity (323.15 K, 100000 kPa): 2.073 ± 0.084 mPa·s; viscosity (323.15 K, 100400 kPa): 2.096 ± 0.087 mPa·s and 2.093 ± 0.086 mPa·s; viscosity (323.15 K, 125000 kPa): 2.396 ± 0.098 mPa·s; viscosity (323.15 K, 125400 kPa): 2.395 ± 0.098 mPa·s; viscosity (323.15 K, 150100 kPa): 2.737 ± 0.11 mPa·s; viscosity (323.15 K, 150500 kPa): 2.738 ± 0.11 mPa·s; viscosity (323.15 K, 176000 kPa): 3.131 ± 0.13 mPa·s; viscosity (323.15 K, 200300 kPa): 3.654 ± 0.16 mPa·s; viscosity (323.15 K, 200800 kPa): 3.651 ± 0.39 mPa·s; viscosity (323.15 K, 210100 kPa): 3.837 ± 0.16 mPa·s and 3.849 ± 0.16 mPa·s; viscosity (323.15 K, 225200 kPa): 4.134 ± 0.27 mPa·s; viscosity (323.15 K, 225300 kPa): 4.131 ± 0.24 mPa·s; viscosity (323.15 K, 226700 kPa): 4.028 ± 0.2 mPa·s; viscosity (323.15 K, 227900 kPa): 4.058 ± 0.28 mPa·s; viscosity (323.15 K, 248900 kPa): 4.6 ± 0.24 mPa·s; viscosity (323.15 K, 249400 kPa): 4.614 ± 0.24 mPa·s; viscosity (323.15 K, 275300 kPa): 5.192 ± 0.21 mPa·s; viscosity (323.15 K, 275600 kPa): 5.209 ± 0.21 mPa·s; viscosity (323.15 K, 300600 kPa): 5.834 ± 0.78 mPa·s; viscosity (323.15 K, 301200 kPa): 5.853 ± 0.82 mPa·s; viscosity (323.15 K, 325600 kPa): 6.509 ± 0.9 mPa·s; viscosity (323.15 K, 326200 kPa): 6.562 ± 0.51 mPa·s; viscosity (323.15 K, 347900 kPa): 7.187 ± 0.56 mPa·s; viscosity (323.15 K, 349200 kPa): 7.207 ± 0.56 mPa·s; self diffusion coefficient (323.4 K, 100 kPa): 1.45e-09 m2/s; self diffusion coefficient (323.5 K, 100 kPa): 1.39e-09 m2/s; self diffusion coefficient (323.51 K, 100 kPa): 1.42e-09 m2/s; self diffusion coefficient (323.51 K, 23000 kPa): 1.21e-09 m2/s; self diffusion coefficient (323.51 K, 50000 kPa): 1.01e-09 m2/s; self diffusion coefficient (323.51 K, 74000 kPa): 8.73e-10 m2/s; self diffusion coefficient (323.51 K, 99500 kPa): 7.59e-10 m2/s; self diffusion coefficient (323.51 K, 300000 kPa): 3.12e-10 m2/s; self diffusion coefficient (323.52 K, 150000 kPa): 5.97e-10 m2/s; self diffusion coefficient (323.52 K, 198500 kPa): 4.81e-10 m2/s; self diffusion coefficient (323.52 K, 249000 kPa): 3.9e-10 m2/s; self diffusion coefficient (323.53 K, 351000 kPa): 2.57e-10 m2/s; viscosity (328.15 K, 100 kPa): 0.8939 ± 0.037 mPa·s and 0.8974 ± 0.037 mPa·s; self diffusion coefficient (328.35 K, 100 kPa): 1.63e-09 m2/s; viscosity (333.15 K, 100 kPa): 0.8117 ± 0.033 mPa·s; mass density (333.15 K, 100 kPa): 1319.81 ± 0.62 kg/m3; viscosity (338.15 K, 100 kPa): 0.7379 ± 0.03 mPa·s and 0.7382 ± 0.03 mPa·s; mass density (338.15 K, 100 kPa): 1310.14 ± 0.62 kg/m3; self diffusion coefficient (338.44 K, 100 kPa): 1.95e-09 m2/s; self diffusion coefficient (342.8 K, 100 kPa): 2.21e-09 m2/s; viscosity (343.15 K, 100 kPa): 0.671 ± 0.028 mPa·s [middle of 5 runs]; mass density (343.15 K, 100 kPa): 1300.26 ± 0.62 kg/m3; viscosity (343.15 K, 10500 kPa): 0.7504 ± 0.031 mPa·s and 0.7498 ± 0.031 mPa·s; viscosity (343.15 K, 25500 kPa): 0.8438 ± 0.034 mPa·s; viscosity (343.15 K, 50000 kPa): 1.016 ± 0.041 mPa·s; viscosity (343.15 K, 76400 kPa): 1.229 ± 0.05 mPa·s and 1.228 ± 0.05 mPa·s; viscosity (343.15 K, 99900 kPa): 1.425 ± 0.058 mPa·s; viscosity (343.15 K, 100500 kPa): 1.411 ± 0.058 mPa·s; viscosity (343.15 K, 100700 kPa): 1.419 ± 0.058 mPa·s and 1.416 ± 0.058 mPa·s; viscosity (343.15 K, 100900 kPa): 1.421 ± 0.058 mPa·s; viscosity (343.15 K, 125800 kPa): 1.666 ± 0.068 mPa·s; viscosity (343.15 K, 126100 kPa): 1.66 ± 0.068 mPa·s; viscosity (343.15 K, 150000 kPa): 1.894 ± 0.077 mPa·s; viscosity (343.15 K, 150200 kPa): 1.899 ± 0.077 mPa·s; viscosity (343.15 K, 175300 kPa): 2.141 ± 0.087 mPa·s; viscosity (343.15 K, 175600 kPa): 2.149 ± 0.087 mPa·s; viscosity (343.15 K, 200400 kPa): 2.397 ± 0.098 mPa·s; viscosity (343.15 K, 200700 kPa): 2.409 ± 0.098 mPa·s; viscosity (343.15 K, 225200 kPa): 2.644 ± 0.11 mPa·s; viscosity (343.15 K, 225400 kPa): 2.672 ± 0.11 mPa·s; viscosity (343.15 K, 249500 kPa): 2.924 ± 0.12 mPa·s; viscosity (343.15 K, 249800 kPa): 2.935 ± 0.12 mPa·s; viscosity (343.15 K, 276600 kPa): 3.259 ± 0.13 mPa·s; viscosity (343.15 K, 277100 kPa): 3.277 ± 0.13 mPa·s; viscosity (343.15 K, 300300 kPa): 3.57 ± 0.15 mPa·s; viscosity (343.15 K, 301200 kPa): 3.596 ± 0.15 mPa·s; viscosity (343.15 K, 325100 kPa): 3.91 ± 0.16 mPa·s; viscosity (343.15 K, 325600 kPa): 3.939 ± 0.16 mPa·s; viscosity (343.15 K, 350100 kPa): 4.306 ± 0.18 mPa·s; viscosity (343.15 K, 352100 kPa): 4.376 ± 0.18 mPa·s; self diffusion coefficient (348.02 K, 152000 kPa): 1.06e-09 m2/s; self diffusion coefficient (348.06 K, 25000 kPa): 2.11e-09 m2/s; self diffusion coefficient (348.06 K, 101000 kPa): 1.35e-09 m2/s; self diffusion coefficient (348.07 K, 100 kPa): 2.57e-09 m2/s; self diffusion coefficient (348.07 K, 50500 kPa): 1.79e-09 m2/s; self diffusion coefficient (348.07 K, 74500 kPa): 1.57e-09 m2/s; self diffusion coefficient (348.07 K, 348000 kPa): 5.2e-10 m2/s; self diffusion coefficient (348.08 K, 175000 kPa): 9.55e-10 m2/s; self diffusion coefficient (348.08 K, 200000 kPa): 8.68e-10 m2/s; self diffusion coefficient (348.08 K, 249500 kPa): 7.32e-10 m2/s; self diffusion coefficient (348.08 K, 299000 kPa): 6.15e-10 m2/s; self diffusion coefficient (348.08 K, 350000 kPa): 5.16e-10 m2/s
